# Test results taken from the NIST ThermoML archive (doi:10.1016/j.fluid.2014.12.036).
# ± gives the expanded uncertainty stated by the source.
# Conditions: Crystal; visual observation
row,Normal melting temperature [°C],SMILES
1,28.5 ± 0.4,CCCCCCCCCCCCCCCCCC [octadecane]
2,6.2 ± 0.4,CCCCCCCCCCCCCC [tetradecane]
3,18.4 ± 0.4,CCCCCCCCCCCCCCCC [hexadecane]
